Measurements reported in US20230373985A1 (Origenis Gmbh, priority 2020, published 2023).

Key:
[1] = target: T1, wt human TYK2, catalytic site (Homo sapiens, UniProt P29597); test: HTRF KinEASE assay, TYK2; assay type: biochemical; settings: 1 μM ATP; read-out: IC50, Activity Toward TYK2
T1 construct: wt human TYK2, catalytic site; purchased SignalChem
T1 sequence (P29597 897-1176 limits assumed): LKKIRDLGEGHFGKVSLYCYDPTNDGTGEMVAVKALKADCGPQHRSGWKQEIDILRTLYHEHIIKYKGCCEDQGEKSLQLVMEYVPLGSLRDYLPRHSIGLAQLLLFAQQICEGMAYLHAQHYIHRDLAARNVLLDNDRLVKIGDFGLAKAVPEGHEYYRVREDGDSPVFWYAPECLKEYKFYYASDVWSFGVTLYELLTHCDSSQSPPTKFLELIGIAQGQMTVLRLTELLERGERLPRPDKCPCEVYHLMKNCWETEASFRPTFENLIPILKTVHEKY
How it was run: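 HTRF KinEASE-TK readout with 1 μM biotinylated TK substrate in 1× kinase buffer, ≥30 min at room temperature, then antibody/streptavidin-XL665 detection for 60 min. TYK2 at 2 nM with 1 μM ATP; JAK2 at 1 nM with 100 μM ATP. Analysis uses emission ratios.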

[2] = target: T2, wt human JAK1, catalytic site (Homo sapiens, UniProt P23458); test: HTRF KinEASE assay, JAK1; assay type: biochemical; settings: 2.5 μM ATP; read-out: IC50, Activity Toward JAK1
T2 construct: wt human JAK1, catalytic site; purchased ThermoFisher
T2 sequence (P23458 875-1153 limits assumed): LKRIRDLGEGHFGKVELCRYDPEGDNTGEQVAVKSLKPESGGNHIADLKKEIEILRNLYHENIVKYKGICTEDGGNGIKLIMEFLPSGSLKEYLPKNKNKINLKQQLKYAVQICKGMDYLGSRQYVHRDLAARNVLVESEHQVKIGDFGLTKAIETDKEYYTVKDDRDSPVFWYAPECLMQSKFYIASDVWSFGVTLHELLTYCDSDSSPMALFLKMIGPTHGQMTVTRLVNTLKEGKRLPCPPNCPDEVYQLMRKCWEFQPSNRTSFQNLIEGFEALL
How it was run: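 Two-step HTRF KinEASE assay: compound, kinase/biotinylated TK substrate and ATP were incubated at least 30 min at room temperature. Antibody plus streptavidin-XL665 was then added and plates were read after 60 min. Inhibition was derived from emission ratios according to the kit protocol.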

IC50 [1] [nM]	IC50 [2] [nM]	SMILES
10 to 100	10 to 100	NC(=O)c1nn(-c2c(Cl)cccc2Cl)cc1Nc1ccc(C(=O)N2CCC2)cc1 [compound 92, 4-((4-(azetidine-1-carbonyl)phenyl)amino)-1-(2,6-dichlorophenyl)-1H-pyrazole-3-carboxamide]
10 to 100	100 to 1000	NC(=O)c1nn(-c2c(Cl)cccc2Cl)cc1Nc1ccc(-c2nc(C(F)(F)F)cn2CCO)nc1 [compound 373, 1-(2,6-dichlorophenyl)-4-((6-(1-(2-hydroxyethyl)-4-(trifluoromethyl)-1H-imidazol-2-yl)pyridin-3-yl)amino)-1H-pyrazole-3-carboxamide]
100 to 1000	100 to 1000	CN1CCC(Oc2ccc(Nc3cn(-c4c(Cl)cccc4Cl)nc3C(N)=O)cn2)CC1 [compound 405, 1-(2,6-dichlorophenyl)-4-((6-((1-methylpiperidin-4-yl)oxy)pyridin-3-yl)amino)-1H-pyrazole-3-carboxamide]
< 10	100 to 1000	CN(C)Cc1nc(C(F)(F)F)nn1-c1ccc(Nc2cn(-c3c(Cl)cccc3Cl)nc2C(N)=O)cc1 [compound 297, 1-(2,6-dichlorophenyl)-4-((4-(5-((dimethylamino)methyl)-3-(trifluoromethyl)-1H-1,2,4-triazol-1-yl)phenyl)amino)-1H-pyrazole-3-carboxamide]
10 to 100	100 to 1000	COCCn1cc(C(F)(F)F)nc1-c1ccc(Nc2cn(-c3c(Cl)cccc3Cl)nc2C(N)=O)cc1 [compound 307, 1-(2,6-dichlorophenyl)-4-((4-(1-(2-methoxyethyl)-4-(trifluoromethyl)-1H-imidazol-2-yl)phenyl)amino)-1H-pyrazole-3-carboxamide]
< 10	100 to 1000	NC(=O)c1nn(-c2c(Cl)cccc2Cl)cc1Nc1ccc(-n2nc(C(F)(F)F)nc2CO)cc1 [compound 371, 1-(2,6-dichlorophenyl)-4-((4-(5-(hydroxymethyl)-3-(trifluoromethyl)-1H-1,2,4-triazol-1-yl)phenyl)amino)-1H-pyrazole-3-carboxamide]
< 10	10 to 100	NC(=O)c1nn(-c2c(Cl)cccc2Cl)nc1Nc1ccc(C(=O)N2CCS(=O)(=O)CC2)cn1 [compound 160, 2-(2,6-dichlorophenyl)-5-((5-(1,1-dioxidothiomorpholine-4-carbonyl)pyridin-2-yl)amino)-2H-1,2,3-triazole-4-carboxamide]
100 to 1000	100 to 1000	NC(=O)c1nn(-c2c(Cl)cccc2Cl)cc1Nc1ccc(-c2nnccc2Cl)cc1 [compound 67, 4-((4-(4-chloropyridazin-3-yl)phenyl)amino)-1-(2,6-dichlorophenyl)-1H-pyrazole-3-carboxamide]
100 to 1000	100 to 1000	Cc1nn(-c2ccc(Nc3cn(-c4c(Cl)cccc4Cl)nc3C(N)=O)cc2)c(C)c1C [compound 224, 1-(2,6-dichlorophenyl)-4-((4-(3,4,5-trimethyl-1H-pyrazol-1-yl)phenyl)amino)-1H-pyrazole-3-carboxamide]
10 to 100	10 to 100	CCS(=O)(=O)Nc1ccc(Nc2cn(-c3c(Cl)cccc3Cl)nc2C(N)=O)cc1 [compound 270, 1-(2,6-dichlorophenyl)-4-((4-(ethylsulfonamido)phenyl)amino)-1H-pyrazole-3-carboxamide]
10 to 100	10 to 100	NC(=O)c1nn(-c2c(Cl)cc(F)cc2Cl)cc1Nc1ccc(C(=O)N2CCOCC2)cc1 [compound 412, 1-(2,6-dichloro-4-fluorophenyl)-4-((4-(morpholine-4-carbonyl)phenyl)amino)-1H-pyrazole-3-carboxamide]
100 to 1000	100 to 1000	NC(=O)c1nn(-c2c(Cl)cccc2Cl)cc1Nc1ccn(-c2ccccn2)n1 [compound 397, 1-(2,6-dichlorophenyl)-4-((1-(pyridin-2-yl)-1H-pyrazol-3-yl)amino)-1H-pyrazole-3-carboxamide]
10 to 100	100 to 1000	COCc1nc(C(F)(F)F)nn1-c1ccc(Nc2cn(-c3c(F)cccc3Cl)nc2C(N)=O)cc1 [compound 298, 1-(2-chloro-6-fluorophenyl)-4-((4-(5-(methoxymethyl)-3-(trifluoromethyl)-1H-1,2,4-triazol-1-yl)phenyl)amino)-1H-pyrazole-3-carboxamide]
100 to 1000	100 to 1000	NC(=O)c1nn(-c2c(Cl)cccc2Cl)cc1Nc1ccc(-c2ccnnc2)nc1 [compound 352, 1-(2,6-dichlorophenyl)-4-((6-(pyridazin-4-yl)pyridin-3-yl)amino)-1H-pyrazole-3-carboxamide]
10 to 100	< 10	NC(=O)c1nn(-c2c(Cl)cc(F)cc2Cl)nc1Nc1ccc(C(=O)N2CCSCC2)cc1 [compound 177, 2-(2,6-dichloro-4-fluorophenyl)-5-((4-(thiomorpholine-4-carbonyl)phenyl)amino)-2H-1,2,3-triazole-4-carboxamide]
10 to 100	10 to 100	Cc1cc(C)n(-c2ccc(Nc3cn(-c4c(Cl)cccc4Cl)nc3C(N)=O)cc2)n1 [compound 216, 1-(2,6-dichlorophenyl)-4-((4-(3,5-dimethyl-1H-pyrazol-1-yl)phenyl)amino)-1H-pyrazole-3-carboxamide]
100 to 1000	100 to 1000	Cc1cnn(-c2ccc(Nc3cn(-c4c(Cl)cccc4Cl)nc3C(N)=O)cc2)c1C [compound 218, 1-(2,6-dichlorophenyl)-4-((4-(4,5-dimethyl-1H-pyrazol-1-yl)phenyl)amino)-1H-pyrazole-3-carboxamide]
100 to 1000	10 to 100	NC(=O)c1nn(-c2c(Cl)cccc2Cl)cc1Nc1ccc(C(=O)N2CC(O)C2)cn1 [compound 439, 1-(2,6-dichlorophenyl)-4-((5-(3-hydroxyazetidine-1-carbonyl)pyridin-2-yl)amino)-1H-pyrazole-3-carboxamide]
100 to 1000	100 to 1000	NC(=O)c1nn(-c2c(Cl)cccc2Cl)cc1Nc1ccc(-n2ccccc2=O)nc1 [compound 390, 1-(2,6-dichlorophenyl)-4-((2-oxo-2H-[1,2′-bipyridin]-5′-yl)amino)-1H-pyrazole-3-carboxamide]
10 to 100	100 to 1000	CN(C)[C@H]1CCN(C(=O)c2ccc(Nc3cn(-c4c(Cl)cccc4Cl)nc3C(N)=O)cn2)C1 [compound 354, (S)-1-(2,6-dichlorophenyl)-4-((6-(3-(dimethylamino)pyrrolidine-1-carbonyl)pyridin-3-yl)amino)-1H-pyrazole-3-carboxamide]
10 to 100	< 10	CCc1ccnn1-c1ccc(Nc2cn(-c3c(Cl)cccc3Cl)nc2C(N)=O)cc1 [compound 241, 1-(2,6-dichlorophenyl)-4-((4-(5-ethyl-1H-pyrazol-1-yl)phenyl)amino)-1H-pyrazole-3-carboxamide]
100 to 1000	100 to 1000	CN1CCN(C(=O)c2cnc(Nc3cn(-c4c(Cl)cccc4Cl)nc3C(N)=O)cn2)CC1 [compound 402, 1-(2,6-dichlorophenyl)-4-((5-(4-methylpiperazine-1-carbonyl)pyrazin-2-yl)amino)-1H-pyrazole-3-carboxamide]
10 to 100	< 10	CC1(C)CN(C(=O)c2ccc(Nc3nn(-c4c(Cl)cccc4Cl)nc3C(N)=O)cc2)C1 [compound 166, 2-(2,6-dichlorophenyl)-5-((4-(3,3-dimethylazetidine-1-carbonyl)phenyl)amino)-2H-1,2,3-triazole-4-carboxamide]
10 to 100	10 to 100	NC(=O)c1nn(-c2c(Cl)cccc2Cl)nc1Nc1ccc(C(=O)N2CC(O)C2)cn1 [compound 154, 2-(2,6-dichlorophenyl)-5-((5-(3-hydroxyazetidine-1-carbonyl)pyridin-2-yl)amino)-2H-1,2,3-triazole-4-carboxamide]
10 to 100	10 to 100	Cn1c(-c2ccc(Nc3cn(-c4c(Cl)cccc4Cl)nc3C(N)=O)cc2)nnc1C(F)(F)F [compound 242, 1-(2,6-dichlorophenyl)-4-((4-(4-methyl-5-(trifluoromethyl)-4H-1,2,4-triazol-3-yl)phenyl)amino)-1H-pyrazole-3-carboxamide]
< 10	10 to 100	NC(=O)c1nn(-c2c(Cl)cccc2Cl)cc1Nc1ccc(-n2ncnc2CO)cc1 [compound 348, 1-(2,6-dichlorophenyl)-4-((4-(5-(hydroxymethyl)-1H-1,2,4-triazol-1-yl)phenyl)amino)-1H-pyrazole-3-carboxamide]
100 to 1000	10 to 100	COCCn1cc(C(F)(F)F)nc1-c1ccc(Nc2nn(-c3c(Cl)cccc3Cl)nc2C(N)=O)cc1 [compound 118, 2-(2,6-dichlorophenyl)-5-((4-(1-(2-methoxyethyl)-4-(trifluoromethyl)-1H-imidazol-2-yl)phenyl)amino)-2H-1,2,3-triazole-4-carboxamide]
10 to 100	100 to 1000	Cc1cnnc(-c2ccc(Nc3cn(-c4c(Cl)cccc4Cl)nc3C(N)=O)cc2)c1C [compound 213, 1-(2,6-dichlorophenyl)-4-((4-(4,5-dimethylpyridazin-3-yl)phenyl)amino)-1H-pyrazole-3-carboxamide]
